Data published in publication PMC6154558, “Discovery and Biological Evaluation of a Series of Pyrrolo[2,3-b]pyrazines as Novel FGFR Inhibitors” (Molecules : A Journal of Synthetic Chemistry and Natural …, 2017).
Values joined by “and” are separate entries in the source; they are usually repeats but may differ in a detail not shown here. Equal values may be shown once.

Experiments:
FGFR1 = target: T1, FGFR1 (Homo sapiens, UniProt P11362); assay: ELISA kinase assay, FGFR1; type: biochemical; settings: for inhibition at 0.01 µM: 0.01 μM compound; for inhibition at 1 µM: 1 μM compound; for IC50: mean ± SD from two separate experiments
T1 construct: purchased Millipore
T1 sequence (P11362 22-822): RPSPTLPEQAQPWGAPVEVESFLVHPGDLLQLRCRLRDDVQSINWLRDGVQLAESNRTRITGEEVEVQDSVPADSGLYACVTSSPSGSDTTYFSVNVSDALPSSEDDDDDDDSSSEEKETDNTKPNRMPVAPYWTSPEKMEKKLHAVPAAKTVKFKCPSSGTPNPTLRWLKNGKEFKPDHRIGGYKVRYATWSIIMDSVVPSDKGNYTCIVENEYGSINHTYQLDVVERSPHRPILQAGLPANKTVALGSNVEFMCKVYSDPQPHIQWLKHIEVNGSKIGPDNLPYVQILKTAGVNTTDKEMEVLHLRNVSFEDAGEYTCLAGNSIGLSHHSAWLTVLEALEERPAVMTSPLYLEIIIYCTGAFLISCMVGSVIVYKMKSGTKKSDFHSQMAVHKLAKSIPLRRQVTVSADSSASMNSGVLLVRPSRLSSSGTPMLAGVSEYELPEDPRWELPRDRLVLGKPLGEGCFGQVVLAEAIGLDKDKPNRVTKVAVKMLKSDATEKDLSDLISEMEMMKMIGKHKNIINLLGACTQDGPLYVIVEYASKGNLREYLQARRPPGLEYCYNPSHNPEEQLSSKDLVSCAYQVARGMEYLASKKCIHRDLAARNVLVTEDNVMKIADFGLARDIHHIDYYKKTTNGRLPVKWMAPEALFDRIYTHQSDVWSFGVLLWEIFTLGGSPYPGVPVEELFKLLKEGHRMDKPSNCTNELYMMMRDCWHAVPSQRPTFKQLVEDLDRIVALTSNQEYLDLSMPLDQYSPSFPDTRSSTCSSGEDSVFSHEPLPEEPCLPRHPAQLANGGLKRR
Procedure: (§1) The effects of compounds on the activities of indicated (FGFR1 and c-Met) kinases were determined using enzyme-linked immunosorbent assays (ELISAs) with purified recombinant proteins. Briefly, 20 μg/mL poly (Glu, Tyr)4:1 (Sigma, St. Louis, MO, USA) was pre-coated in 96-well plates as a substrate. A 50-μL aliquot of 10 μmol/L ATP solution diluted in kinase reaction buffer (50 mmol/L HEPES (pH 7.4), 50 mmol/L MgCl2, 0.5 mmol/L MnCl2, 0.2 mmol/L Na3VO4, and 1 mmol/L DTT) was added to each well; 1 μL of various concentrations of compounds diluted in 1% DMSO (v/v) (Sigma) were then added to each reaction well. DMSO (1%, v/v) was used as the negative control. The kinase reaction was initiated by the addition of purified tyrosine kinase proteins FGFR1 (Millipore, Darmstadt, Germany) or c-Met (Millipore) diluted in 49 μL of kinase reaction buffer. After incubation for 60 min at 37 °C, the plate was washed three times with phosphate-buffered saline (PBS) containing 0.1% Tween 20 (T-PBS). Anti-phosphotyrosine (PY99) antibody (Sanra Cruz, Dallas, USA) (100 μL; 1:500, diluted in 5 mg/mL bovine serum albumin (BSA) T-PBS) was then added. After a 30-min incubation at 37 °C, the plate was washed three times, and 100 μL horseradish peroxidase-conjugated goat anti-mouse IgG (Calbiochem, Shanghai, China) (1:2000, diluted in 5 mg/mL BSA T-PBS) was added. The plate was then incubated at 37°C for 30 min and washed 3 times. A 100-μL aliquot of a solution containing 0.03% H2O2 and 2 mg/mL o-phenylenediamine in 0.1 mol/L citrate buffer (pH 5.5) was added. The reaction was terminated by the addition of 50 μL of 2 mol/L H2SO4 as the color changed, and the plate was analyzed using a multi-well spectrophotometer (SpectraMAX 190, Molecular Devices, Palo Alto, CA, USA) at 490 nm. […] (1) where IR, A490 and A490control are the inhibition rate, the absorbance value of the tested compound at 490 nm and the absorbance value of the negative control compound at 490 nm, respectively. The IC50 values were calculated from the inhibition curves in two separate experiments.

c-Met = target: T2, c-Met (Homo sapiens, UniProt P08581); assay: ELISA kinase assay, c-Met; type: biochemical; settings: for inhibition at 0.01 µM: 0.01 μM compound; for inhibition at 0.1 µM: 0.1 μM compound; for inhibition at 1 µM: 1 μM compound
T2 construct: purchased Millipore
T2 sequence (P08581 25-1390): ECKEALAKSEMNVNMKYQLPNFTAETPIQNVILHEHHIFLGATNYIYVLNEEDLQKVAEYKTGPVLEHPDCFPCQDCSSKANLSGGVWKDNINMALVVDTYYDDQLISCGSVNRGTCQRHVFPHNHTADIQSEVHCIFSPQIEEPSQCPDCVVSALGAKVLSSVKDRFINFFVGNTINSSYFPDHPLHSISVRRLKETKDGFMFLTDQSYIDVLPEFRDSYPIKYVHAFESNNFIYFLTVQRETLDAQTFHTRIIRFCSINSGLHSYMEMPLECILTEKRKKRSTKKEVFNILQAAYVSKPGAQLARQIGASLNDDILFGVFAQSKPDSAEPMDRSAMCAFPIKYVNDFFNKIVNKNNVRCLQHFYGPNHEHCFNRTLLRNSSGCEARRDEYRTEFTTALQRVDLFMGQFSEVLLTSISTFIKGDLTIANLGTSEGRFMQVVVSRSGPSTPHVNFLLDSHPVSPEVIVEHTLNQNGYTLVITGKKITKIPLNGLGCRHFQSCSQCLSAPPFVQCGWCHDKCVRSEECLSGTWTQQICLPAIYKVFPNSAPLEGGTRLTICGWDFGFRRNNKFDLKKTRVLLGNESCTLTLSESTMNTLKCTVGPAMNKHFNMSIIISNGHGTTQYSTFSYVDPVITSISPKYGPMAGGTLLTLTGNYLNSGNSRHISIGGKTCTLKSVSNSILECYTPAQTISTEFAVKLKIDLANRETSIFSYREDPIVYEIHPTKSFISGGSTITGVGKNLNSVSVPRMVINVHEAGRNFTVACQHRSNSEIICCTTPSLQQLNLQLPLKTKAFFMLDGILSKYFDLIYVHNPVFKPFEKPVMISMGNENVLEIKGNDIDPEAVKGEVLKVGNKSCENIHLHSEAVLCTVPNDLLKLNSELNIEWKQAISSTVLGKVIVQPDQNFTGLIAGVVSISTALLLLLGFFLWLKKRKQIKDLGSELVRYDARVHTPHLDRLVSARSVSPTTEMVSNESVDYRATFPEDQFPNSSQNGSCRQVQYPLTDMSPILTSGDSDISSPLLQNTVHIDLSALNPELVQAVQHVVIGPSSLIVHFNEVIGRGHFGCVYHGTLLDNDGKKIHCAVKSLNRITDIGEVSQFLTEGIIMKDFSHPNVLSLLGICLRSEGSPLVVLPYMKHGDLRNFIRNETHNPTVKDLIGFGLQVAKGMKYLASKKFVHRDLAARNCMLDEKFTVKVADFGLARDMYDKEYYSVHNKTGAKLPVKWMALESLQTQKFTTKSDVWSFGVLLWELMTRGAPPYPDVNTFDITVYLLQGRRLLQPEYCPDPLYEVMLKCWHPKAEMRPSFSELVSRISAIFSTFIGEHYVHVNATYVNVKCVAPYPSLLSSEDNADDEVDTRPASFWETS
Procedure: as §1

[1] = 10 μM compound, mean from two separate experiments

| Compound | inhibition at 0.1 µM (FGFR1; 0.1 μM compound) [%] | inhibition at 1 µM (FGFR1) [%] | inhibition at 10 µM (FGFR1; [1]) [%] | also measured |
| --- | --- | --- | --- | --- |
| CCC(=O)n1cc(-c2cnc3ccn(S(=O)(=O)c4cccc([N+](=O)[O-])c4)c3n2)cn1 [Compound 24, 1-(4-(5-((3-Nitrophenyl)sulfonyl)-5H-pyrrolo[2,3-b]pyrazin-3-yl)-1H-pyrazol-1-yl)propan-1-one] | < 40 | 60.9 | – | inhibition at 0.01 µM (FGFR1): 29.3%; FGFR1 Inhibition (%) (FGFR1; 0.1 μM compound, 0.1 µM): 30.2% |
| CC(=O)c1ccc(-c2cnc3ccn(S(=O)(=O)c4cccc([N+](=O)[O-])c4)c3n2)cc1 [Compound 26, 1-(4-(5-((3-Nitrophenyl)sulfonyl)-5H-pyrrolo[2,3-b]pyrazin-3-yl)phenyl)ethan-1-one] | 35.7 | 57.9 | – | – |
| Cn1cc(-c2cnc3ccn(S(=O)(=O)c4ccccc4C#N)c3n2)cn1 [Compound 13, 2-((3-(1-Methyl-1H-pyrazol-4-yl)-5H-pyrrolo[2,3-b]pyrazin-5-yl)sulfonyl)benzonitrile] | 40.3 | 32.6 | 59.7 | – |
| Cn1cc(-c2cnc3cnn(S(=O)(=O)Cc4ccccc4)c3c2)cn1 [Compound 5, 1-(Benzylsulfonyl)-6-(1-methyl-1H-pyrazol-4-yl)-1H-pyrazolo[4,3-b]pyridine] | – | – | 46.1 | – |
| Cn1cc(-c2cnc3ccn(S(=O)(=O)c4ccc(N)cc4)c3n2)cn1 [Compound 20, 4-((3-(1-Methyl-1H-pyrazol-4-yl)-5H-pyrrolo[2,3-b]pyrazin-5-yl)sulfonyl)aniline] | 31.8 | 24.2 | 42.4 | – |
| CCC(=O)Nc1cccc(S(=O)(=O)n2ccc3ncc(-c4cnn(C)c4)nc32)c1 [Compound 22, N-(3-((3-(1-Methyl-1H-pyrazol-4-yl)-5H-pyrrolo[2,3-b]pyrazin-5-yl)sulfonyl)phenyl)propionamide] | 27.7 | 17.3 | 38.7 | – |
| O=[N+]([O-])c1cccc(S(=O)(=O)n2ccc3ncc(-c4ccc(CO)cc4)nc32)c1 [Compound 27, (4-(5-((3-Nitrophenyl)sulfonyl)-5H-pyrrolo[2,3-b]pyrazin-3-yl)phenyl)methanol] | 52.2 | 75.5 | – | inhibition at 0.01 µM (c-Met): 1.1%; inhibition at 0.1 µM (c-Met): 8.4%; inhibition at 1 µM (c-Met): 30.1%; IC50 (FGFR1): 113 nM and 114 nM |
| Cn1cc(-c2cnc3ccn(S(=O)(=O)c4cccc([N+](=O)[O-])c4)c3n2)cn1 [Compound 17, 3-(1-Methyl-1H-pyrazol-4-yl)-5-((3-nitrophenyl)sulfonyl)-5H-pyrrolo[2,3-b]pyrazine] | 61.1 | 76.4 | 92.1 | inhibition at 0.01 µM (c-Met): -5.4%; inhibition at 0.1 µM (c-Met): -1.5%; inhibition at 1 µM (c-Met): 30.6%; IC50 (FGFR1): 85.9 ± 21.2 nM |
| Cn1cc(-c2cnc3ccn(S(=O)(=O)c4ccccc4)c3c2)cn1 [Compound 8, 6-(1-Methyl-1H-pyrazol-4-yl)-1-(phenylsulfonyl)-1H-pyrrolo[3,2-b]pyridine] | – | 31.6 | 80.4 | – |
| Cc1ncc(-c2cnn(C)c2)cc1NS(=O)(=O)c1ccccc1 [Compound 10, N-(2-Methyl-5-(1-methyl-1H-pyrazol-4-yl)pyridin-3-yl)benzenesulfonamide] | – | 15.4 | 50 | – |
| CC(=O)n1cc(-c2cnc3ccn(S(=O)(=O)c4cccc([N+](=O)[O-])c4)c3n2)cn1 [Compound 23, 1-(4-(5-((3-Nitrophenyl)sulfonyl)-5H-pyrrolo[2,3-b]pyrazin-3-yl)-1H-pyrazol-1-yl)ethan-1-one] | < 40 | 58.8 | – | inhibition at 0.01 µM (FGFR1): 36.5%; FGFR1 Inhibition (%) (FGFR1; 0.1 μM compound, 0.1 µM): 37.8% |
| CC(=O)Nc1cccc(S(=O)(=O)n2ccc3ncc(-c4cnn(C)c4)nc32)c1 [Compound 21, N-(3-((3-(1-Methyl-1H-pyrazol-4-yl)-5H-pyrrolo[2,3-b]pyrazin-5-yl)sulfonyl)phenyl)acetamide] | 44.7 | 50.9 | 79 | – |
| Cn1cc(-c2cnc3ccn(S(=O)(=O)c4cccc(N)c4)c3n2)cn1 [Compound 19, 3-((3-(1-Methyl-1H-pyrazol-4-yl)-5H-pyrrolo[2,3-b]pyrazin-5-yl)sulfonyl)aniline] | 34.7 | 57.5 | 82.2 | – |
| Cn1cc(-c2cnc3cnn(Cc4ccccc4)c3c2)cn1 [Compound 6, 1-Benzyl-6-(1-methyl-1H-pyrazol-4-yl)-1H-pyrazolo[4,3-b]pyridine] | – | – | 53 | – |
| Cn1cc(-c2cnc3cnn(S(=O)(=O)c4ccccc4)c3c2)cn1 [Compound 4, 6-(1-Methyl-1H-pyrazol-4-yl)-1-(phenylsulfonyl)-1H-pyrazolo[4,3-b]pyridine] | – | 47.1 | 87.8 | – |
| Cn1cc(-c2cnc3ccn(S(=O)(=O)c4ccc([N+](=O)[O-])cc4)c3n2)cn1 [Compound 18, 3-(1-Methyl-1H-pyrazol-4-yl)-5-((4-nitrophenyl)sulfonyl)-5H-pyrrolo[2,3-b]pyrazine] | 17.4 | 12.8 | 15.5 | – |
| CC(=O)Cn1cc(-c2cnc3ccn(S(=O)(=O)c4cccc([N+](=O)[O-])c4)c3n2)cn1 [Compound 25, 1-(4-(5-((3-Nitrophenyl)sulfonyl)-5H-pyrrolo[2,3-b]pyrazin-3-yl)-1H-pyrazol-1-yl)propan-2-one] | 55.7 | 63.4 | – | inhibition at 0.01 µM (c-Met): 5.5%; inhibition at 0.1 µM (c-Met): 5%; inhibition at 1 µM (c-Met): 14.1%; inhibition at 0.01 µM (FGFR1): 32.8%; IC50 (FGFR1): 45 nM and 45.9 nM |
| Cn1cc(-c2cnc3ccn(S(=O)(=O)c4ccc(Cl)cc4)c3n2)cn1 [Compound 14, 5-((4-Chlorophenyl)sulfonyl)-3-(1-methyl-1H-pyrazol-4-yl)-5H-pyrrolo[2,3-b]pyrazine] | 22 | 27.2 | 45.2 | – |
| Cn1cc(-c2cnc3ccn(S(=O)(=O)c4ccc(F)cc4F)c3n2)cn1 [Compound 15, 5-((2,4-Difluorophenyl)sulfonyl)-3-(1-methyl-1H-pyrazol-4-yl)-5H-pyrrolo[2,3-b]pyrazine] | 23.6 | 31.2 | 55.6 | – |
| Cn1cc(-c2cnc3ccn(S(=O)(=O)c4ccc(Cl)c(Cl)c4)c3n2)cn1 [Compound 16, 5-((3,4-Dichlorophenyl)sulfonyl)-3-(1-methyl-1H-pyrazol-4-yl)-5H-pyrrolo[2,3-b]pyrazine] | 13.6 | 34.8 | 74.5 | – |
| COc1cccc2cc(-c3cnc4ccn(S(=O)(=O)c5cccc([N+](=O)[O-])c5)c4n3)[nH]c12 [Compound 28, 3-(7-Methoxy-1H-indol-2-yl)-5-((3-nitrophenyl)sulfonyl)-5H-pyrrolo[2,3-b]pyrazine] | 34 | 62.4 | – | inhibition at 0.01 µM (FGFR1): 27.2% |
| Cn1cc(-c2cnc3cnn(CCc4ccccc4)c3c2)cn1 [Compound 7, 6-(1-Methyl-1H-pyrazol-4-yl)-1-phenethyl-1H-pyrazolo[4,3-b]pyridine] | – | – | 55.9 | – |
| Cn1cc(-c2cnc3ccn(S(=O)(=O)c4ccccc4)c3n2)cn1 [Compound 9, 3-(1-Methyl-1H-pyrazol-4-yl)-5-(phenylsulfonyl)-5H-pyrrolo[2,3-b]pyrazine] | 46 | – | 93.3 | FGFR1 Inhibition (%) (FGFR1; 10 μM compound, mean from two separate experiments, 10 µM): 90.5% |
| Cn1cc(-c2cnc3ccn(S(=O)(=O)C4CCCCC4)c3n2)cn1 [Compound 12, 5-(Cyclohexylsulfonyl)-3-(1-methyl-1H-pyrazol-4-yl)-5H-pyrrolo[2,3-b]pyrazine] | 29.4 | 24.1 | 53.3 | – |
| Cn1cc(-c2cnc3ccn(S(=O)(=O)C4CCCC4)c3n2)cn1 [Compound 11, 5-(Cyclopentylsulfonyl)-3-(1-methyl-1H-pyrazol-4-yl)-5H-pyrrolo[2,3-b]pyrazine] | 26.8 | 20.8 | 34.7 | – |
